{"source": "paper PMC8632718", "about": "“Novel Assay Platform to Evaluate Intracellular Killing of Mycobacterium tuberculosis: In Vitro and In Vivo Validation” (Frontiers in Immunology, 2021)", "key": {"MonoMac-6 cells": {"system": "MonoMac-6 cells", "format": "cell-based, human", "conditions": "10 µM Cf-peptide, 2 h, LysoTracker, ImageJ JACoP on merged images", "description": "Cellular uptake and localization were visualized by confocal laser scanning microscopy. MonoMac-6 cells were seeded 1 day prior to treatment into coverslips (thickness 1, Assistent, Karl Hecht GmbH, Sondheim vor der Rhön, Germany) containing a 24-well plate (Sarstedt, Nümbrecht, Germany) for microscopy studies at a density of 7.5 × 10^4 cells/well, in 1 ml complete DMEM medium. The following day, cells were treated with Cf-peptide at a concentration of 10 µM (diluted in serum-free DMEM medium) for 2 h. Lysosomes were stained by LysoTracker Deep Red (Invitrogen, Waltham, MA, USA) for 30 min, and nuclei were stained by Hoechst 33342 solution (Thermo Scientific, USA). After each step, cells were washed three times with serum-free medium, then cells were fixed by 4% paraformaldehyde for 15 min and mounted to microscopy slides with Mowiol 4-88 (Sigma, Budapest, Hungary). Imaging was performed by a Zeiss LSM-710 system (Carl Zeiss microscopy GmbH, Oberkochen, Germany) with a ×40/1.4 Plan-Apochromat oil immersion objective using lasers with the parameters: Cf peptides λex = 488 nm, λem = 541 nm, nuclei λex = 405 nm, λem = 467 nm (Hoechst 33342), lysosomes λex = 633 nm, λem = 720 nm (LysoTrackerTM Deep Red) or λex = 577 nm, λem = 590 nm (LysoTrackerTM Red DND-99) were used. Zeiss ZEN lite software (Carl Zeiss Microscopy GmbH, Jena, Germany) was used for image processing.\nParallel with flow cytometry measurements, confocal laser scanning microscopy images were also captured in order to assess qualitative information on intracellular localization. LysoTrackerTM Deep Red was used for lysosome and Hoechst 33342 for nuclear staining to distinguish subcellular localization of the Cf-peptide. […] Colocalization of Cf-peptide and LysoTracker may be subjectively identified by the cooccurrence, the simple spatial overlap which combined the contribution of both signals (green and red) when the images of each signal are superimposed (merged, see Supplementary Figure S3 ).\nmicroscopy at the 10 µM Cf-peptide concentration (based on flow cytometry profile), and MonoMac6 cells were incubated for 2 hrs.\nthe visible differences among localization profiles of the Cf-peptides, we applied greyscale analysis of\nthe images and the evaluation was carried out on a representative peptide set.\nwere studied and the treatment, the staining and fixation process were carefully optimized to assess\nLaser intensity values were identical in case of all Cf-peptides. ZEN 3.0 blue lite software\nwas used for image processing and grey scale values were extracted using NIH ImageJ software’s Plot"}, "EBC-1 spheroids": {"system": "EBC-1 spheroids", "test": "Penetration into EBC-1 3D spheroids (confocal line scan)", "format": "cell-based, human", "conditions": "10 µM, 3 h, confocal z-stack to 55 µm, line scan n = 16", "procedure": "In this study, we have employed a modified method based on ([55]). Briefly, micromolds for casting 3D Petri dishes (MicroTissues, Sigma, 5 × 7 array) were filled with molten agarose (2% (w/v) in PBS). The gelled agarose dishes were equilibrated with serum-free DMEM (2 ml/2 h, 37°C). Cells were seeded after incubation (1.8 × 10^4 cell/µL in DMEM CM). Prior to seeding process, nuclei were stained with Hoechst 33342 solution (0.2 µM) for 30 min ( Figure 2 ). Based on our previous work ([55]), the nuclear stain could not successfully penetrate into deeper layers of the spheroids (mostly localized at the spheroid surface), and towards the center of the spheroids the Hoechst 33342 signal was gradually decreasing. Stained cells were incubated in 2 ml DMEM CM for 48 h while cell-to-cell adhesion drives the aggregation and formation of spheroids. To monitor the condition of the spheroids, bright-field images were captured (Olympus CX41). After 48 h of incubation, spheroids were washed two times with fresh ICM DMEM and were treated with the Cf-Dhvar4 peptide (10 µM/2 ml ICM DMEM for 3 h). […] Line scan analysis was performed by NIH ImageJ software, two spheroids were analyzed (eight scans per spheroid, n = 16 in total). […]\nNext, we assessed the penetration ability of Cf-Dhvar4 peptide on spheroids formed from EBC-1 cells. […]"}, "[1]": {"system": "Mtb H37Rv-infected MonoMac-6 human monocytes", "test": "Intracellular killing of Mycobacterium tuberculosis", "format": "cell-based"}, "Mtb H37Rv": {"system": "Mtb H37Rv", "test": "In vitro antitubercular effect, broth dilution MIC", "format": "cell-based", "conditions": "Mycobacterium tuberculosis, 672 h, extracellular Mtb H37Rv, Sula semisynthetic medium pH 6.5, 37°C, 28 days, repeated at least two times"}, "[2]": {"system": "Mycobacterium tuberculosis H37Rv", "test": "Slow progressing murine TB model (i.p. infection), CFU in organs", "format": "in vivo, BALB/c female mice", "conditions": "BALB/c mice, INH 20 mg/kg bw per os, twice a week for 5 weeks, 1 week after 10th treatment"}, "[3]": {"test": "Analytical RP-HPLC retention time (correlates with overall hydrophobicity)", "format": "physicochemical", "parameters": "Rt (retention time): unit not given here", "conditions": "chromatographic measure of hydrophobicity; Waters Acquity UPLC BEH C18 (1.7 µm, 150 × 2.1 mm), flow rate 0.3 ml/min, gradient 2% B 1 min, 2%–100% B 16 min; single peak or first of two 5(6)-Cf isomer peaks", "procedure": "Purified peptides were analyzed by LC-MS using a Thermo Scientific Q Exactive Focus Hybrid Quadrupole-Orbitrap Mass Spectrometer. For the separation, a Waters Acquity UPLC BEH C18 (1.7 µm, 150 × 2.1 mm) column was used with a flow rate of 0.3 ml/min.\nFor INH conjugation, representative cell-penetrating (CPP) and antimicrobial peptides (AMP) were chosen. These cationic, amphiphilic peptides are favored in the transportation of various cargos due to their high internalization rate. The used peptide series contains well-known CPPs such as penetratin, transportan, and Tat, frequently studied AMPs such as magainin and buforin, and designed analogs such as Dhvar4, Crot(1-9,38-42), and CM15. Also, a receptor-binding tuftsin analog (OT20), which was reported as a macrophage-targeting peptide, was also applied. […] Mass spectra and RP-HPLC chromatograms are available at https://figshare.com/s/48a023a25068f7658adf, DOI: 10.6084/m9.figshare.16644901. […] To study the internalization rate and intracellular localization, fluorescently labeled analogs were also synthesized. Note that the retention time of Cf-peptide are somewhat higher than unlabeled analogs, and in some cases, two peaks were detected due to the isomeric distribution of 5(6)-Cf molecule."}, "[4]": {"system": "CALU-1 monolayer / EBC-1 cells", "format": "in vitro ADME, human", "conditions": "Transwell, 0.4 µm polycarbonate, Cf-peptide apical 10 and 20 µM, 45 min, apical to basolateral; EBC-1 fluorescence read-out", "procedure": "EBC-1 lung squamous carcinoma and CALU-1 human lung epidermoid carcinoma were seeded on 24-well plates with Transwell inserts (TW) [Nunc, Sigma polycarbonate microporous membrane, 0.4 µm pore size (growth area 0.412 cm^2)]. Before use, TW inserts were incubated with ICM. On day 1, 300 μl of CALU-1 suspension in complete DMEM medium (8.0 × 10^5 cells) was pipetted onto the surface of the TW apical chamber and 500 μl complete DMEM medium was added to the basolateral side. In order to avoid nonattached cells, after incubation at 37°C for 5–6 h, the apical medium was removed and replaced with fresh complete DMEM medium. […] On day 5, the medium was changed, then Cf-peptide was added to the CALU-1-containing apical side at 10 and 20 µM concentrations, and the system was incubated for 45 min or 3 h (37°C, 5% CO2). The TW chamber was removed after incubation. EBC-1 cells were studied using flow cytometry (BD LSR II).\nEBC-1 cells were treated without the presence of the TW inserts as controls (on day 4 prior to treatment, EBC-1 cells (10^5 cells/well in complete DMEM). […]\nFigure 7 The penetration ability of Cf-peptides was determined on Transwell bronchial interface, and the penetration rates were quantified by flow cytometry. […] The confluence of CALU-1 monolayer was monitored with CellTracker Green, and after development of stable green fluorescence, cells were imaged in situ. […]"}, "EBC-1 cells": {"system": "EBC-1 cells", "format": "cell-based, human", "conditions": "10 µM, 3 hrs, fixed, 30 profiles", "procedure": "In addition to the internalization experiments, the surface morphology of INH-peptide-treated and fixed EBC-1 cells was also studied with atomic force microscopy (AFM) ( Supplementary Information 1.3 ). High-resolution imaging of the cell surfaces was performed with a Flex-Axiom AFM system (Nanosurf, Liestal, Switzerland).The representative images and surface roughness of the native and treated cells are shown in Supplementary Figure S2 .\n1.3 Membrane integrity evaluation by atomic force microscopy (AFM) […]\nHigh resolution imaging of the surfaces were performed with a Flex-Axiom AFM system (Nanosurf, Liestal, Switzerland) operating in dynamic mode utilizing soft-tapping cantilevers (Tap150-G, BudgetSensors) with nominal force constant of 5 N/m. The recorded images were evaluated with the Gwyddion software. […]\nTwo cut-off frequencies were chosen with real-space wavelengths of 1 μm and 200 nm. […] Figure 2D,E,F. Scale dependent surface roughness of the cells was determined according to Antonio et al. Mean Rq values are somewhat higher in the peptide and conjugate treated cells, but […]\nSupplementary Figure 2. […] The apex area of the cells was selected for imaging with a scan area of 5 μm × 5 μm (512 × 512 pixel resolution), where the cellular curvature has the smallest distortion effect on the recorded height profiles. […]\n1.4. […] To quantify […]"}}, "note": "Where two headings read alike, the source gives them in different places. Ends that are not written are not given here."}
{"compound": "Cf-RAGLQFPVGRVHRLLRK [Cf-Dhvar4, 5(6)-carboxyfluorescein-labeled Dhvar4]", "values": [{"measurement": "Pearson's coefficient of colocalization with lysosomal staining", "setting": "MonoMac-6 cells", "value": 0.249}, {"measurement": "penetration ability on EBC-1 spheroids", "setting": "EBC-1 spheroids", "value": "fair penetration ability"}]}
{"compound": "NNC(=O)c1ccncc1", "note": "[INH, isoniazid]", "values": [{"measurement": "intracellular killing efficacy (CFU)", "setting": "[1]; 5, 10, 50 µM, treated two times for 3 + 3 days, SDS lysis, CFU on Löwenstein-Jensen after 4 weeks", "value": "not effective"}, {"measurement": "MIC", "setting": "Mtb H37Rv", "value": "0.1 to 0.5", "unit": "µM"}, {"measurement": "Mtb CFU in spleen", "setting": "[2]; INH-Dhvar4 30 mg/kg bw s.c.", "value": "moderate decrease"}, {"measurement": "Mtb CFU in lung", "setting": "[2]", "value": "Clearance of Mtb from the lung"}]}
{"compound": "KRLFKKLLFSLRKY-NH2 [Dhvar4, reference compound]", "values": [{"measurement": "Rt (retention time)", "setting": "[3]", "value": 6.9}, {"measurement": "intracellular killing efficacy (CFU)", "setting": "[1]", "value": "not effective"}, {"measurement": "penetration through CALU-1 monolayer and internalization into EBC-1 cells", "setting": "[4]", "value": "higher internalization rates"}, {"measurement": "membrane integrity (AFM surface roughness Rq)", "setting": "EBC-1 cells", "value": "membrane integrity maintained"}]}
